Laboratory results reported in patent US10987349B2, “Antitumor agent and bromodomain inhibitor” (FUJIFILM Corporation, priority 2016, dated 2021).

Columns and labels:
BRD4 BD2 = biological target: T1, BRD4 BD2 (Homo sapiens, UniProt O60885); assay: Binding assay, BRD4 BD2 to acetylated histone H4 Peptide-Biotin (EPIgeneous Binding Domain Kit B); settings: test compound at 300 nmol/L; read-out: Binding inhibition percentage BRD4 BD2
T1 construct: BRD2 BD2, BRD3 BD2 and BRD4 BD2 (Cisbio); purchased Cisbio
Protocol: (§1) Moreover, BRD2 BD2, BRD3 BD2 and BRD4 BD2 (Cisbio), Peptide-Biotin (AnaSpec), and EPIgeneous (registered trademark) Binding Domain Kit B (Cisbio) were used to carry out an assay. That is, per well, 4 μL of BRD2 BD2, BRD3 BD2 or BRD4 BD2, which was adjusted to 20 nmol/L with Diluent buffer; 4 μL of 250 nmol/L Peptide-Biotin; 2 μL of Dilution buffer (Cisbio) containing DMSO or a test compound that was serially diluted with DMSO; 5 μL of 25 nmol/L Streptavidin-XL665; 5 μL of Anti-Gst-Eu+^3+ Cryptate Conjugate 50-fold diluted with Detection Buffer were added to a 384-well plate (Corning).
(§2) The obtained mixture was left at rest at room temperature for 20 hours, and thereafter, the fluoresence intensity at 665 nm and 620 nm was measured using Envision plate reader (Perkin Elmer), so that the inhibition percentage (%) of the test compound against the binding of a bromodomain in a bromodomain-containing protein to Peptide-Biotin was calculated. Binding inhibition percentage (%)=[1−{(fluorescence intensity at 665 nm of test compound−added well)/(fluorescence intensity at 620 nm of test compound−added well)}/{(fluorescence intensity at 665 nm of DMSO−added well)/(fluorescence intensity at 665 nm of DMSO−added well)}]×100
(§3) Moreover, using Graphpad prism 5 (GraphPad software), 50% inhibitory concentration [IC50 (nmol/L)] was calculated according to a non-linear regression analysis (log (inhibitor) vs. response—Variable slope (four parameters)).
(§4) Regarding other test compounds, each compound was diluted with DMSO to a final concentration of 300 nmol/L by the same method as that described above, and the binding inhibition percentage (%) of each test compound at 300 nmol/L against the binding of bromodomain in a bromodomain-containing protein to acetylated histone was calculated.

BRD2 BD1 = biological target: T2, BRD2 BD1 (Homo sapiens, UniProt P25440); assay: Binding assay, BRD2 BD1 to acetylated histone H4 Peptide-Biotin (EPIgeneous Binding Domain Kit A); settings: test compound at 300 nmol/L; read-out: Binding inhibition percentage BRD2 BD1
T2 construct: BRD2 BD1, BRD3 BD1 and BRD4 BD1 (Cisbio); purchased Cisbio
Protocol: (§5) BRD2 BD1, BRD3 BD1 and BRD4 BD1 (Cisbio), [Lys(Ac)5/8/12/16]-Histone H4(1-25)-GSGSK (Biotin) (hereinafter referred to as “Peptide-Biotin,” AnaSpec), and EPIgeneous (registered trademark) Binding Domain Kit A (Cisbio) were used to carry out an assay. That is to say, per well, 4 μL of BRD2 BD1, BRD3 BD1 or BRD4 BD1, which was adjusted to 20 nmol/L with Diluent buffer; 4 μL of 25 nmol/L Peptide-Biotin; 2 μL of Dilution buffer (Cisbio) containing dimethyl sulfoxide (DMSO) or a test compound that was serially diluted with DMSO; 5 μL of 2.5 nmol/L Streptavidin-d2; and 5 μL of Anti-Gst-Eu+^3+ Cryptate Conjugate 50-fold diluted with Detection Buffer were added to a 384-well plate (Corning).
as §2, §3, §4

BRD2 BD2 = biological target: T3, BRD2 BD2 (Homo sapiens, UniProt P25440); assay: Binding assay, BRD2 BD2 to acetylated histone H4 Peptide-Biotin (EPIgeneous Binding Domain Kit B); settings: test compound at 300 nmol/L; read-out: Binding inhibition percentage BRD2 BD2
T3 construct: BRD2 BD2, BRD3 BD2 and BRD4 BD2 (Cisbio); purchased Cisbio
Protocol: as §1, §2, §3, §4

BRD4 BD1 = biological target: T4, BRD4 BD1 (Homo sapiens, UniProt O60885); assay: Binding assay, BRD4 BD1 to acetylated histone H4 Peptide-Biotin (EPIgeneous Binding Domain Kit A); settings: test compound at 300 nmol/L; read-out: Binding inhibition percentage BRD4 BD1
T4 construct: BRD2 BD1, BRD3 BD1 and BRD4 BD1 (Cisbio); purchased Cisbio
Protocol: as §5, §2, §3, §4

BRD3 BD2 = biological target: T5, BRD3 BD2 (Homo sapiens, UniProt Q15059); assay: Binding assay, BRD3 BD2 to acetylated histone H4 Peptide-Biotin (EPIgeneous Binding Domain Kit B); settings: test compound at 300 nmol/L; read-out: Binding inhibition percentage BRD3 BD2
T5 construct: BRD2 BD2, BRD3 BD2 and BRD4 BD2 (Cisbio); purchased Cisbio
Protocol: as §1, §2, §3, §4

BRD3 BD1 = biological target: T6, BRD3 BD1 (Homo sapiens, UniProt Q15059); assay: Binding assay, BRD3 BD1 to acetylated histone H4 Peptide-Biotin (EPIgeneous Binding Domain Kit A); settings: test compound at 300 nmol/L; read-out: Binding inhibition percentage BRD3 BD1
T6 construct: BRD2 BD1, BRD3 BD1 and BRD4 BD1 (Cisbio); purchased Cisbio
Protocol: as §5, §2, §3, §4

T6 sequence (Q15059 34-140 limits assumed): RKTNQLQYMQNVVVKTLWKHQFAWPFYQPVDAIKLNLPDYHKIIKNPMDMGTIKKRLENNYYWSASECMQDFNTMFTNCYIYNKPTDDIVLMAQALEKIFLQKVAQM
T2 sequence (P25440 74-180 limits assumed): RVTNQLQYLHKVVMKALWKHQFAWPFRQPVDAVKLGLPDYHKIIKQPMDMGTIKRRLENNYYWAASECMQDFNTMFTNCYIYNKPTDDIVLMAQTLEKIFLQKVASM
T5 sequence (Q15059 306-415 limits assumed): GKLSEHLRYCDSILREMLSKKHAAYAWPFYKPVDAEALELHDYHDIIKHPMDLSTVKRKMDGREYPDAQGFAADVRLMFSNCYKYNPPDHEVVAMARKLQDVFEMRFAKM
T3 sequence (P25440 344-453 limits assumed): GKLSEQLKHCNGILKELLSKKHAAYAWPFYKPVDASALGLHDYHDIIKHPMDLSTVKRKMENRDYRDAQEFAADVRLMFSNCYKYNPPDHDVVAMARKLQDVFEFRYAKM

Row | SMILES | inhibition at 0.3 µM (BRD4 BD2) [%] | inhibition at 0.3 µM (BRD2 BD1) [%] | inhibition at 0.3 µM (BRD2 BD2) [%] | inhibition at 0.3 µM (BRD4 BD1) [%] | inhibition at 0.3 µM (BRD3 BD2) [%] | inhibition at 0.3 µM (BRD3 BD1) [%]
1 | CCn1c(=O)cc(C2CC2)c2cc(-n3c(=O)[nH]c(=O)n3-c3ccccc3)ccc21 [Example 248, 1-(4-cyclopropyl-1-ethyl-2-oxo-1,2-dihydroquinolin-6-yl)-2-phenyl-1,2,4-triazolidine-3,5-dione] | 90 | 93 | 90 | 95 | 91 | 95
2 | CCn1c(=O)cc(N2CCOCC2)c2cc(N3C(=O)CC[C@H]3c3ccccc3)ccc21 [Example 253, 1-ethyl-4-(morpholin-4-yl)-6-((5S)-2-oxo-5-phenylpyrrolidin-1-yl)quinolin-2(1H)-one] | 85 | 70 | 87 | 92 | 89 | 90
3 | CCn1c(=O)cc(C2CC2)c2cc(-c3nc(C)nn3-c3ccccc3)ccc21 [Example 252, 4-cyclopropyl-1-ethyl-6-(3-methyl-1-phenyl-1H-1,2,4-triazol-5-yl)quinolin-2(1H)-one] | 88 | 82 | 86 | 94 | 90 | 92
4 | CCn1c(=O)cc(C2CC2)c2cc(-n3c(-c4ccc(Cl)cc4)cn(C)c3=O)ccc21 [Example 269, 6-(5-(4-chlorophenyl)-3-methyl-2-oxo-2,3-dihydro-1H-imidazol-1-yl)-4-cyclopropyl-1-ethylquinolin-2(1H)-one] | 87 | 36 | 85 | 71 | 92 | 58
5 | CCn1c(=O)cc(N2CCOCC2)c2cc(-n3c(-c4ccc(C(F)(F)F)cc4)cn(C)c3=O)ccc21 [Example 270, 1-ethyl-6-(3-methyl-2-oxo-5-(4-(trifluoromethyl)phenyl)-2,3-dihydro-1H-imidazol-1-yl)-4-(morpholin-4-yl)quinolin-2(1H)-one] | 89 | 87 | 89 | 94 | 91 | 94

The remaining lines, values ahead:

Row | inhibition at 0.3 µM (BRD4 BD2) [%] | inhibition at 0.3 µM (BRD2 BD1) [%] | inhibition at 0.3 µM (BRD2 BD2) [%] | inhibition at 0.3 µM (BRD4 BD1) [%] | inhibition at 0.3 µM (BRD3 BD2) [%] | inhibition at 0.3 µM (BRD3 BD1) [%] | SMILES
6 | 84 | 64 | 83 | 85 | 91 | 88 | CCn1c(=O)cc(C)c2cc(-c3cccnc3-c3ccccc3)ccc21 [Example 291, 1-ethyl-4-methyl-6-(2-phenylpyridin-3-yl)quinolin-2(1H)-one]
7 | 85 | 94 | 84 | 94 | 90 | 95 | CCn1c(=O)cc(C2CCN(C)CC2)c2cc(C(=O)N(C)c3ccc(C)c(C)c3)ccc21 [Example 294, N-(3,4-dimethylphenyl)-1-ethyl-N-methyl-4-(1-methylpiperidin-4-yl)-2-oxo-1,2-dihydroquinoline-6-carboxamide]
8 | 90 | 83 | 88 | 93 | 92 | 90 | CCn1c(=O)cc(C2CC2)c2cc(N3C(=O)C(C)C(=O)N3c3ccccc3)ccc21 (stereo not drawn) [Example 280, 1-(4-cyclopropyl-1-ethyl-2-oxo-1,2-dihydroquinolin-6-yl)-4-methyl-2-phenylpyrazolidine-3,5-dione]
